Target: human PDE1B (Homo sapiens (Human), UniProt Q01064)
Assay: PDE1B inhibitory assay (IMAP TR-FRET)
Conditions: 200 nM FAM-cAMP, Calmodulin, CaCl2; for IC50: PDE1B pIC50, negative log of half-maximal molar inhibitory concentration; for PDE1B pIC50: negative log of half-maximal molar inhibitory concentration
Protocol: PDE1B inhibition was determined by an IMAP TR-FRET assay.
After a brief centrifugation, the plates were incubated for 30 minutes at room temperature. The assay was terminated by adding 5 μL IMAP binding reagent/Tb complex (Molecular Devices, Sunnyvale, Calif.) to each well.
Plates were incubated 1 hour at room temperature and read on a Viewlux multimode plate reader (Perkin Elmer). The instrument was set to excite using the DUG11 filter and measure using 490/10 nm and 520/10 nm filters. Ratios of acceptor and donor were then calculated.
For IC50 calculations, the values of % efficacy versus a series of compound concentrations were then plotted using non-linear regression analysis of sigmoidal dose-response curves generated with the equation Y=B+(T−B)/1+10((Log EC50−X)×Hill Slope), where Y=percent activity, B=minimum percent efficacy, T=maximum percent efficacy, X=logarithm of compound and Hill Slope=slope factor or Hill coefficient. The IC50 value was determined by the concentration causing a half-maximal percent efficacy.

With `COc1ccc(Cn2c(=O)n3ncnc3c3cc(C(F)CN4CCOCC4)cnc32)cc1` (centres unmarked) [Example 269, 9-(1-Fluoro-2-morpholinoethyl)-6-(4-methoxybenzyl)pyrido[3,2-e][1,2,4]triazolo[1,5-c]pyrimidin-5(6H)-one] the IC50 was 100 to 1000 nM.

Work on `COc1ccc(Cn2c(=O)n3ncnc3c3ccc(CN4Cc5ccccc5C4)nc32)cc1` [Example 264] yielded an IC50 of 100 to 1000 nM.

With `COc1ccc(Cn2c(=O)n3ncnc3c3ccc(CN4CCOCC4)nc32)cc1` [Example 256, 6-(4-Methoxybenzyl)-8-(morpholinomethyl)pyrido[3,2-e][1,2,4]triazolo[1,5-c]pyrimidin-5(6H)-one] the IC50 was 1000 to 10000 nM.

In the case of `COc1ccc(Cn2c(=O)n3ncnc3c3c(C)c(CN4CCN(C)C(C)C4)sc32)cc1` (centres unmarked) [Example 73], the “PDE1B pIC50” value is reported as greater than 7.

With `COc1ccc(Cn2c(=O)n3ncnc3c3c4c(sc32)CN(Cc2scnc2C)CC4)cc1` [Example 123] the “PDE1B pIC50” value was greater than 7.

Compound `C[C@@H]1CN(Cc2cnc3c(c2)c2ncnn2c(=O)n3Cc2ccc(OC(F)F)cc2F)C[C@H](C)O1` [Example 290] has an IC50 of 100 to 1000 nM.

`Cc1cc2c(s1)n(Cc1ccccc1)c(=O)n1ncnc21` [Example 12] gave an IC50 of 1000 to 10000 nM.

`COc1ccc(Cn2c(=O)n3ncnc3c3c4c(sc32)CN(CCCSC)CC4)cc1` [Example 112] was tested, and the “PDE1B pIC50” value was greater than 7.

In the case of `COc1c(F)cc(Cn2c(=O)n3ncnc3c3c4c(sc32)COCC4)cc1F` [Example 98], the “PDE1B pIC50” value is reported as less than 5.

In the case of `COc1ccc(Cn2c(=O)n3ncnc3c3cc(CN4C[C@@H](C)O[C@@H](C)C4)cnc32)c(F)c1` [Example 277], the “PDE1B pIC50” value is reported as greater than 7.

`COc1ccc(Cn2c(=O)n3ncnc3c3ncc(CN4CCOCC4)cc32)cc1` [Example 241] gave an IC50 of 1000 to 10000 nM.

With `COc1ccc(Cn2c(=O)n3ncnc3c3cc(CN4CCC(OC)CC4)cnc32)cc1` [Example 236] the IC50 was 100 to 1000 nM.

In the case of `O=c1n(Cc2ccc(Cl)cc2)c2ncc(CN3CCCCC3)cc2c2ncnn12` [Example 209], the IC50 is reported as 1000 to 10000 nM.

`COc1ccc(Cn2c(=O)n3ncnc3c3cc(N4C[C@@H](C)O[C@@H](C)C4)cnc32)cc1` [Example 201] gave an IC50 of 100 to 1000 nM.

`COc1ccc(Cn2c(=O)n3ncnc3c3cc(CCNC4CCOCC4)cnc32)cc1` [Example 212, 6-(4-Methoxybenzyl)-9-(2-(tetrahydro-2H-pyran-4-ylamino)ethyl)pyrido[3,2-e][1,2,4]triazolo[1,5-c]pyrimidin-5(6H)-one] showed an IC50 of 1000 to 10000 nM.

In the case of `COc1ccc(Cn2c(=O)n3ncnc3c3c4c(sc32)N(CC2CCOC2)CCC4)cc1` (centres unmarked) [Example 150], the “PDE1B pIC50” value is reported as greater than 7.

With `O=c1n(Cc2ccc(-c3ccccc3)cc2)c2sc(Cc3ccccc3)cc2c2ncnn12` [Example 18] the IC50 was 1000 to 10000 nM.

For `COc1ccc(Cn2c(=O)n3ncnc3c3cc(CN4C[C@@H](C)O[C@@H](C)C4)cnc32)cc1F` [Example 276], the IC50 was 100 to 1000 nM.

Work on `COc1ccc(Cn2c(=O)n3ncnc3c3c4c(sc32)CN(C2CS(=O)(=O)C2)CC4)cc1` [Example 124] yielded an IC50 of 100 to 1000 nM.

`COc1ccc(Cn2c(=O)n3ncnc3c3c(C)c(CN(C)C4CC4)sc32)cc1` [Example 46] was tested, and the “PDE1B pIC50” value was greater than 7.

In the case of `COc1ccc(Cn2c(=O)n3ncnc3c3c4c(sc32)CN(CC2CCCOC2)CC4(F)F)cc1` (centres unmarked) [Example 136], the “PDE1B pIC50” value is reported as greater than 7.

`COc1ccc(Cn2c(=O)n3ncnc3c3cc(CN(C)C)sc32)cc1` [Example 30] showed an IC50 of 100 to 1000 nM.

`C[C@@H]1CN(Cc2cnc3c(c2)c2ncnn2c(=O)n3Cc2ccccc2OC(F)F)C[C@H](C)O1` [Example 297] was tested, and the “PDE1B pIC50” value was less than 5.
